Key:
[1] = tested on: isolated rat aorta; assay: Test A: activity against contractions induced by low K⁺ concentrations (20 mM K⁺) in the isolated rat aorta; assay type: cell-based; conditions: concentration reducing the 20 mM K⁺-induced contraction by 90%; rat thoracic aorta strips denuded of endothelium; read-out: Activity Test A EC₉₀
Method: The test methods used were adapted from those described by Winslow et al [Eur.J.Pharmacol., 131, 219-228 (1986)] and Karaki [J.Pharmacol. Methods, 18, 1-21 (1987)] for differentiating vaso-relaxant activity.
Test A : Activity against contractions induced by low K⁺ concentrations in the isolated rat aorta
Thoracic aorta was removed from rats and transverse strips, denuded of endothelium, were suspended in a bath containing Krebs solution. The tension was recorded and a contraction induced by addition of 20 mM K⁺ (potassium ion) to the bathing solution. The test compound was added to the bath as a solution in increasing cumulative concentration. The concentration in the bathing solution of the test compound which reduced the K⁺-induced contraction by 90% was determined and expressed in µM as the effective concentration (EC₉₀), given in Table I.

[2] = tested on: blood pressure; assay: Blood pressure in the anaesthetised guinea pig (same experiment as bronchospasm test); assay type: in vivo; conditions: nebulised aerosol for 1 minute, control 42
Method: (§1) In in vivo tests in the anaesthetised guinea pig, performed according to the method of Dixon W.E. and Brodie T.G., J. Physiol 29, pp 97-173 (1903), Compound BD affected histamine-induced bronchospasm and blood pressure as follows:-
(§2) A nebulised aerosol generated from an aqueous solution having a given concentration was administered for 1 minute to the anaesthetised guinea pigs.

[3] = tested on: histamine-induced bronchospasm; assay: Histamine-induced bronchospasm in the anaesthetised guinea pig (method of Dixon and Brodie), nebulised aerosol; assay type: in vivo; conditions: nebulised aerosol for 1 minute, control 80
Method: as §1, §2

Row | Compound | EC90 [1] [µM] | other results
1 | CNC(=S)C1(c2cccnc2)CCCCC1=O (racemic) [Compound A, (±)-N-methyl-2-oxo-1-(3-pyridyl)cyclohexanecarbothioamide] | 0.8 | 
2 | (±)-trans-N-methyl-2-hydroxy-1-(3-pyridyl)cyclohexanecarbothioamide | 7.5 | 
3 | CNC(=S)C1(c2cccnc2)CCC/C1=N\OCc1ccc(F)cc1 (racemic) [Compound BD, (±)-anti-N-methyl-2-(4-fluorobenzyloxyimino)-1-(3-pyridyl)cyclopentanecarbothioamide] |  | B.P. ([2]; 100µg/ml aqueous solution): 49 mmHg; B.P. ([2]; 300µg/ml aqueous solution): 43 mmHg; B.P. ([2]; 1000µg/ml aqueous solution): 40 mmHg; % maximum bronchospasm ([3]; 100µg/ml aqueous solution): 76%; % maximum bronchospasm ([3]; 300µg/ml aqueous solution): 46%; % maximum bronchospasm ([3]; 1000µg/ml aqueous solution): 22%
4 | CNC(=S)C1(c2cnc3ccccc3c2)CCCCC1=O (racemic) [Compound B, (±)-N-methyl-2-oxo-1-(3-quinolinyl)cyclohexanecarbothioamide] | 0.07 | 
5 | (±)-cis-N-methyl-2-hydroxy-1-(3-pyridyl)cyclohexanecarbothioamide | 24 | 
6 | CNC(=S)C1(c2cccnc2)CCCC/C1=N\OC (racemic) [Compound G, (±)-anti-N-methyl-2-methoxyimino-1-(3-pyridyl)cyclohexanecarbothioamide] | 0.3 | 

Further lines, with some results ahead:

Row | EC90 [1] [µM] | Compound | other results
7 | 0.01 | CNC(=S)C1(c2cccnc2)CCCC/C1=N\OCc1ccccc1 (racemic) [Compound H, (±)-anti-N-methyl-2-benzyloxyimino-1-(3-pyridyl)cyclohexanecarbothioamide] | 
8 | 0.3 | CCNC(=S)C1(c2cccnc2)CCCCC1=O (racemic) [T, (±)-N-ethyl-2-oxo-1-(3-pyridyl)cyclohexanecarbothioamide] | 
9 | 0.3 | CNC(=S)[C@]1(c2cnc3ccccc3c2)CCCC/C1=N\N1CCC[C@H]1COC [Compound J, (2S)-anti-2-(methoxymethyl)-1-[2′-(3-quinolinyl)-2′-methylthiocarbamoylcyclohexylideneamino]pyrrolidine] | 
10 | 0.24 | CNC(=S)C1(c2ccc(Cl)nc2)CCCCC1=O (racemic) [Compound R, (±)-N-methyl-2-oxo-1-(6-chloropyrid-3-yl)cyclohexanecarbothioamide] | 
11 | 0.4 | CNC(=S)C1(c2cncc(Br)c2)CCCCC1=O (racemic) [Compound S, (±)-N-methyl-2-oxo-1-(5-bromopyrid-3-yl)cyclohexanecarbothioamide] | 

Source: patent EP0321274A1, “Derivatives of thioformamide” (RHONE POULENC RORER LIMITED, priority 1987, dated 1989)
